Test results: ChEMBL document CHEMBL1152354, “Design, synthesis and identification of novel colchicine-derived immunosuppressant” (Bioorg Med Chem Lett, 2009)
Activity calls are given as the source filed them. The calls are words filed in the database; no cut-off is given here.

What was measured:
Splenocyte [1] = experiment: Immunosuppressive activity in mouse splenocytes assessed as inhibition of allogenic mixed lymphocyte reaction; type: functional, cell-based
Mus musculus = experiment: Immunosuppressive activity in BALB/c mouse skin allografted C57BL/6 mouse assessed as survival of allograft skin at 1 mg/kg, ip administered daily; type: functional; settings: route intraperitoneal
Splenocyte [2] = experiment: Immunosuppressive activity in splenocytes assessed as inhibition of mixed lymphocyte reaction; type: functional, cell-based
[3] = Immunosuppressive activity in concanavalin A-activated T cell assessed as inhibition of lymphoproliferation after 3 days by beta-scintillation counting; type: functional, cell-based
[4] = Immunosuppressive activity in LPS-activated B lymphocyte assessed as inhibition of lymphoproliferation after 3 days by beta-scintillation counting; type: functional
Splenocyte [5] = experiment: Ratio of IC50 of drug to IC50 of cyclosporin A for immunosuppressive activity in mouse splenocytes assessed as inhibition of allogenic mixed lymphocyte reaction; type: functional
RAW264.7 [6] = experiment: Cytotoxicity against mouse RAW264.7 cells at 0.01 to 10 uM; type: cell-based; settings: raw264.7, 10 µM
RAW264.7 [7] = experiment: Immunosuppressive activity in mouse RAW264.7 cells assessed as inhibition of LPS-induced iNOS expression at 0.01 to 10 uM; type: functional, cell-based
RAW264.7 [8] = experiment: Immunosuppressive activity in mouse RAW264.7 cells assessed as inhibition of LPS-induced TNFalpha expression level in at 0.01 to 10 uM; type: functional, cell-based
RAW264.7 [9] = experiment: Immunosuppressive activity in mouse RAW264.7 cells assessed as inhibition of LPS-induced iNOS expression; type: functional, cell-based
RAW264.7 [10] = experiment: Immunosuppressive activity in mouse RAW264.7 cells assessed as inhibition of LPS-induced NO production; type: functional, cell-based
RAW264.7 [11] = experiment: Immunosuppressive activity in mouse RAW264.7 cells assessed as inhibition of LPS-induced NO production at 0.01 to 10 uM; type: functional, cell-based
[12] = Antiproliferative activity against rat H42E cells assessed as cell number; type: cell-based
[13] = Cytotoxicity against rat H42E cells assessed as alteration in mitochondrial function by MTT assay; type: cell-based; settings: read-out: TC50 (the source's name)
[14] = Cytotoxicity against rat H42E cells assessed as release of alpha-glutathione S transferase; type: cell-based; settings: read-out: TC50 (the source's name)
[15] = Cytotoxicity against rat H42E cells assessed as intracellular ATP level; type: cell-based; settings: read-out: TC50 (the source's name)
[16] = Mus musculus, Splenocyte, read-out: IC50

Compound	IC50 (Splenocyte [1])	IC50 (Splenocyte [2]; [16])	other results
COc1cc2c(c(OC)c1OC)-c1ccc(OC)c(=O)cc1[C@@H](N(C)C(=O)CCCO[N+](=O)[O-])CC2	3500 nM	–	–
C/C=C/C[C@@H](C)[C@@H](O)[C@H]1C(=O)N[C@@H](CC)C(=O)N(C)CC(=O)N(C)[C@@H](CC(C)C)C(=O)N[C@@H](C(C)C)C(=O)N(C)[C@@H](CC(C)C)C(=O)N[C@@H](C)C(=O)N[C@H](C)C(=O)N(C)[C@@H](CC(C)C)C(=O)N(C)[C@@H](CC(C)C)C(=O)N(C)[C@@H](C(C)C)C(=O)N1C [CYCLOSPORINE]	–	–	Survival (Mus musculus): 11.8 days
COc1cc2c(c(OC)c1OC)-c1ccc(SC)c(=O)cc1[C@@H](NC(=O)c1ccc([N+](=O)[O-])c(CO[N+](=O)[O-])c1)CC2	–	55 nM	–
COc1cc2c(c(OC)c1OC)-c1ccc(SC)c(=O)cc1[C@@H](NC(=O)c1cccc(CO[N+](=O)[O-])c1C#N)CC2	–	58 nM	–
COc1ccc(C(=O)N[C@H]2CCc3cc(OC)c(OC)c(OC)c3-c3ccc(SC)c(=O)cc32)cc1CO[N+](=O)[O-]	–	15 nM	–
COc1ccc(CO[N+](=O)[O-])cc1C(=O)N[C@H]1CCc2cc(OC)c(OC)c(OC)c2-c2ccc(SC)c(=O)cc21	–	78 nM	–
COc1cc2c(c(OC)c1OC)-c1ccc(SC)c(=O)cc1[C@@H](NC(=O)c1cc(CO[N+](=O)[O-])ccc1[N+](=O)[O-])CC2	–	73 nM	–
COc1cc2c(c(OC)c1OC)-c1ccc(SC)c(=O)cc1[C@@H](NC(=O)c1ccc(I)c(CO[N+](=O)[O-])c1)CC2	–	68 nM	–
COc1cc2c(c(OC)c1OC)-c1ccc(OC)c(=O)cc1[C@@H](NC(C)=O)CC2 [COLCHICINE]	2300 nM	–	IC50 [3]: 548 nM; IC50 [4]: 7.3 nM
COc1cc2c(c(OC)c1OC)-c1ccc(N(C)C)c(=O)cc1[C@@H](NC(=O)c1ccc(CO[N+](=O)[O-])cc1)CC2	2500 nM	–	–
COc1cc2c(c(OC)c1OC)-c1ccc(OC)c(=O)cc1[C@@H](N(C)C(=O)c1ccc(CO[N+](=O)[O-])cc1)CC2	> 100000 nM	–	–
COc1cc2c(c(OC)c1OC)-c1ccc(OC)c(=O)cc1[C@@H](N(C)C(=O)c1cccc(CO[N+](=O)[O-])c1)CC2	> 100000 nM	–	–
COc1cc2c(c(OC)c1OC)-c1ccc(SC)c(=O)cc1[C@@H](NC(=O)c1ccc(-c3ccccc3)c(CO[N+](=O)[O-])c1)CC2	–	54 nM	–
COc1cc2c(c(OC)c1OC)-c1ccc(SC)c(=O)cc1[C@@H](NC(=O)c1cc(CO[N+](=O)[O-])ccc1Cl)CC2	–	4 nM	IC50 [3]: 392 nM
COc1cc2c(c(OC)c1OC)-c1ccc(OC)c(=O)cc1[C@@H](NC(=O)c1ccc(CCl)cc1)CC2	320 nM	–	Ratio IC50 (Splenocyte [5]): 7
COc1cc2c(c(OC)c1OC)-c1ccc(SC)c(=O)cc1[C@@H](NC(=O)CCCO[N+](=O)[O-])CC2	210 nM	–	IC50 [3]: 582 nM; IC50 [4]: 1 nM; Activity (RAW264.7 [6]): Non-toxic
COc1cc2c(c(OC)c1OC)-c1ccc(SC)c(=O)cc1[C@@H](NC(=O)c1cccc(CO[N+](=O)[O-])c1I)CC2	–	85 nM	–
COc1cc2c(c(OC)c1OC)-c1ccc(SC)c(=O)cc1[C@@H](NC(=O)c1ccc(CO[N+](=O)[O-])cc1)CC2	20 nM	–	IC50 [3]: 392 nM; IC50 [4]: 349 nM
COc1cc2c(c(OC)c1OC)-c1ccc(SC)c(=O)cc1[C@@H](NC(=O)c1cc(CO[N+](=O)[O-])ccc1I)CC2	–	103 nM	–
COc1cc2c(c(OC)c1OC)-c1ccc(SC)c(=O)cc1[C@@H](NC(=O)c1cccc(CO[N+](=O)[O-])c1[N+](=O)[O-])CC2	–	9 nM	IC50 [3]: 7 nM
COc1cc2c(c(OC)c1OC)-c1ccc(SC)c(=O)cc1[C@@H](NC(=O)c1cccc(CO[N+](=O)[O-])c1F)CC2	–	65 nM	–

Compound	IC50 (Splenocyte [1])	IC50 (Splenocyte [2]; [16])	other results
COc1cc2c(c(OC)c1OC)-c1ccc(OC)c(=O)cc1[C@@H](NC(=O)c1cccc(CCl)c1)CC2	6300 nM	–	–
COc1cc2c(c(OC)c1OC)-c1ccc(OC)c(=O)cc1[C@@H](NC(=O)CCCO[N+](=O)[O-])CC2	10 nM	–	Ratio IC50 (Splenocyte [5]): 470
COc1cc2c(c(OC)c1OC)-c1ccc(SC)c(=O)cc1[C@@H](NC(=O)c1cccc(CO[N+](=O)[O-])c1)CC2	70 nM	68 nM	IC50 [3]: 1 nM; inhibition (RAW264.7 [7]): inactive; IC50 [4]: 1 nM; inhibition (RAW264.7 [8]): Active; Activity (RAW264.7 [9]): Dose-dependent effect; Activity (RAW264.7 [10]): Dose-dependent effect; Activity (RAW264.7 [6]): Non-toxic; inhibition (RAW264.7 [11]): inactive
COc1cc2c(c(OC)c1OC)-c1ccc(SC)c(=O)cc1[C@@H](NC(=O)c1cccc(CO[N+](=O)[O-])c1Cl)CC2	–	8 nM	IC50 [3]: 3 nM; Survival (Mus musculus): 12.3 days
COc1cc2c(c(OC)c1OC)-c1ccc(SC)c(=O)cc1[C@@H](NC(=O)c1cc(CO[N+](=O)[O-])ccc1F)CC2	–	4 nM	–
COc1cc2c(c(OC)c1OC)-c1ccc(SC)c(=O)cc1[C@@H](NC(=O)c1cccc(CO[N+](=O)[O-])c1Br)CC2	–	61 nM	–
COc1cc2c(c(OC)c1OC)-c1ccc(SC)c(=O)cc1[C@@H](NC(=O)c1ccc(Br)c(CO[N+](=O)[O-])c1)CC2	–	89 nM	–
COc1cc2c(c(OC)c1OC)-c1ccc(SC)c(=O)cc1[C@@H](NC(=O)c1cc(CO[N+](=O)[O-])ccc1-c1ccccc1)CC2	–	–	IC50 (Splenocyte [2]; splenocyte): Not Active
COc1cc2c(c(OC)c1OC)-c1ccc(N(C)C)c(=O)cc1[C@@H](NC(=O)c1cccc(CO[N+](=O)[O-])c1)CC2	10000 nM	–	–
COc1cc2c(c(OC)c1OC)-c1ccc(N(C)C)c(=O)cc1[C@@H](NC(=O)CCCO[N+](=O)[O-])CC2	6600 nM	–	–
COc1cc2c(c(OC)c1OC)-c1ccc(OC)c(=O)cc1[C@@H](NC(=O)c1cccc(CO[N+](=O)[O-])c1)CC2	250 nM	–	Ratio IC50 (Splenocyte [5]): 25
COc1cc2c(c(OC)c1OC)-c1ccc(SC)c(=O)cc1[C@@H](NC(=O)c1ccc(C#N)c(CO[N+](=O)[O-])c1)CC2	–	49 nM	–
COc1cc2c(c(OC)c1OC)-c1ccc(SC)c(=O)cc1[C@@H](NC(=O)c1ccc(F)c(CO[N+](=O)[O-])c1)CC2	–	31 nM	–
COc1cc2c(c(OC)c1OC)-c1ccc(SC)c(=O)cc1[C@@H](NC(=O)c1ccc(Cl)c(CO[N+](=O)[O-])c1)CC2	–	50 nM	CC50 [12]: 300000 nM; CC50 [13]: 300000 nM; CC50 [14]: 300000 nM; CC50 [15]: 300000 nM
COc1cc2c(c(OC)c1OC)-c1ccc(OC)c(=O)cc1[C@@H](NC(=O)c1ccc(CO[N+](=O)[O-])cc1)CC2	70 nM	–	Ratio IC50 (Splenocyte [5]): 5
COc1cc2c(c(OC)c1OC)-c1ccc(SC)c(=O)cc1[C@@H](NC(=O)c1cccc(CO[N+](=O)[O-])c1OC)CC2	–	700 nM	–
COc1cc2c(c(OC)c1OC)-c1ccc(SC)c(=O)cc1[C@@H](NC(=O)c1cc(CO[N+](=O)[O-])ccc1Br)CC2	–	89 nM	–
COc1cc2c(c(OC)c1OC)-c1ccc(SC)c(=O)cc1[C@@H](NC(=O)c1cc(CO[N+](=O)[O-])ccc1C#N)CC2	–	290 nM	–
COc1cc2c(c(OC)c1OC)-c1ccc(OC)c(=O)cc1[C@@H](NC(=O)CCCCl)CC2	4700 nM	–	–
COc1cc2c(c(OC)c1OC)-c1ccc(SC)c(=O)cc1[C@@H](NC(=O)c1cccc(CO[N+](=O)[O-])c1-c1ccccc1)CC2	–	434 nM	–
